Values after ≈ are worked out from the molar mass of the structure shown. Read-outs that look alike come from different tables or passages of the source.

Data set [1] concerns murine Swiss albino fibroblast (3T3) cell line. The data set is described as follows: Cell viability, NRU assay, 3T3. The conditions noted are these: Mus musculus, 24 h incubation, NRU endpoint. The data set is classed as cell-based. How it is done:
(§1) Two different endpoints, 3-(4,5-dimethyl-2-thiazolyl)-2,5-diphenyltetrazolium bromide (MTT) and neutral red uptake (NRU), were used to assess differences in cell-induced cytotoxicity. […] In addition, NRU evaluates the interaction of these drugs with the plasmatic membrane. Cell responses were determined from the MTT [16] and NRU [17] assays, using the two proposed cell lines. Cytotoxicity assays were performed at concentrations equal to 80 and 250 µg/mL. The IC50 value, referring to the half-maximal inhibitory concentration, was determined as a key parameter in cytotoxicity studies (Table 1). It plays a crucial role in evaluating cell viability and assessing cellular responses to various drugs or toxins. For cases where IC50 values were below 80 µg/mL, additional studies at lower concentrations were conducted to accurately determine these values. […] The selectivity index (SI), used as a measurement of action against the tumor cell line in comparison with a normal cell line, was also included.
(§2) • In Vitro Assay Using Human Erythrocytes • - Acquisition and Extraction of the Erythrocytes Human blood samples were obtained from the Banc de Sang i Teixits de Barcelona (Spain) from the Catalan Department of Health. Blood was deposited in tubes with the anticoagulant EDTA-K3. Blood samples were centrifuged at 3000 rpm and 4 °C for 10 min (Megafuge 2.0 R. Heraeus Instruments, Hanau, Germany) to induce sedimentation. Plasma was extracted with a Pasteur pipette. Next, the residual pellet was washed with PBS at pH 7.4. This procedure was repeated three times to remove residual leukocytes and platelets and to concentrate the erythrocytes. Following the last wash, the erythrocyte suspension was diluted (1:1) in PBS at pH 7.4 to obtain a suitable erythrocyte suspension (cell density of 8 × 10^9 cell/mL). • - Hemolysis Assay The hemolysis assay determined the capability of different compounds to induce the hemolysis of the erythrocyte membrane. Stock solutions of each compound at 1 mg/mL in PBS at pH 7.4 were prepared. Different volumes (10–80 μL) were placed in polystyrene tubes, and an aliquot of 25 µL of the erythrocyte suspensions was added to each tube. The final volume was 1 mL. The tubes were incubated at room temperature under rotatory conditions. Then, the tubes were centrifuged at 10,000 rpm for 5 min. The supernatants’ absorbance at 540 nm (Shimadzu UV-160A, Shimadzu, Duisburg, Germany) was compared with that of the positive (erythrocytes hemolyzed with distilled water) and negative (erythrocyte suspension in PBS at pH 7.4) controls. The degree of hemolysis was determined using the following equation: Hemolysis (%) = 100 × (Abs − Abs0)/(Abs100 − Abs0) where Abs, Abs0, and Abs100 are the absorbance of the test samples, of the suspension treated with isotonic phosphate–buffered saline (PBS), and of the suspension of complete hemolysis treated with distilled water, respectively. • In Vitro Essay Using Cell Cultures The murine Swiss albino fibroblasts (3T3) and the squamous cell carcinoma (A431) cell lines were obtained from Celltec UB. Cells were grown in DMEM medium (4.5 g/L glucose) supplemented with 10% (v/v) FBS, 2 mM L-glutamine, 100 U/mL penicillin, and 100 µg/mL streptomycin at 37 °C with 5% CO2. Cells were routinely cultured in 75 cm^2 culture flasks and were trypsinized using trypsin–EDTA when the cells reached approximately 80% confluence. The trypan blue assay, which allows for the direct identification and enumeration of the live (unstained) and dead (blue) cells in the cell population, was used to evaluate the viability of the cells in the cell suspension obtained. • - Cell Viability Assays Cell lines of 3T3 (1 × 10^5 cells/mL) and A431 (5 × 10^4 cells/mL) were grown at defined densities in the 60 central wells of a 96-well plate. The cells were incubated for 24 h in 5% CO2 at 37 °C. […]

Data set [2] deals with A431 cell line (squamous cell carcinoma). The data set is described as follows: Cell viability, MTT assay, A431. It counts as cell-based. The conditions noted are these: for IC50: Homo sapiens; for SI250, pseudo-selectivity index (MTT): 250 µg/mL, 24 h, A431 vs 3T3, MTT; for SI (MTT), selectivity index: SI = IC50 (3T3)/IC50 (A431); for selective cytotoxicity, A431 in comparison with 3T3 cells: lower IC50 for A431 than 3T3. How it is done: as §1, §2

Data set [3] in a line: Hemolysis assay with human erythrocytes. It counts as cell-based. Particulars: human, washed human erythrocyte suspension, pH 7.4, read-out: degree of hemolysis. The procedure: (§3) In this context, non-hemolytic compounds are essential, as they enhance the safety and efficacy of lactam-based drugs by reducing adverse effects while maintaining their antitumor activity. In accordance with EU regulations (ISO 10993-4), the assessment of the biological compatibility of new compounds that may come into contact with the blood necessitates in vitro hemocompatibility evaluations. In this study, the extent of hemolysis induced by the different compounds was assessed by incubating them with an erythrocyte suspension. The hemolytic response of compounds 1–10 was evaluated at two concentrations (10 and 80 µg/mL), the results of which are presented in Figure 3.
as §2, with “°C. Then, the spent medium was removed, and the cells were incubated for 24 h, with their corresponding compound solutions (1 mg/mL) previously diluted in a minimum amount of DMF (dimethylformamide) and then in DMEM medium supplemented with 5% FBS (100 µL) at the required concentration range (80 or 250 µg/mL).” for “°C.”

Data set [4] relates to human erythrocytes. As to the kind of experiment: Hemolysis assay with human erythrocytes. The data set is classed as cell-based. Particulars: from 10 to 80 µg/mL. The procedure:
as §3
as §2, with “°C. Then, the spent medium was removed, and the cells were incubated for 24 h, with their corresponding compound solutions (1 mg/mL) previously diluted in a minimum amount of DMF (dimethylformamide) and then in DMEM medium supplemented with 5% FBS (100 µL) at the required concentration range (80 or 250 µg/mL).” for “°C.”

The subject of data set [5] is A431 cell line (squamous cell carcinoma). The data set is described as follows: Cell viability, NRU assay, A431. It counts as cell-based, human. Particulars: for SI250, pseudo-selectivity index (NRU): 250 µg/mL, 24 h, A431 vs 3T3, NRU; for IC50: Homo sapiens, A-431, 24 h, 24 h incubation, NRU endpoint, A431. How it is done: as §1, §2
Data set [6] concerns murine Swiss albino fibroblast (3T3) cell line. The data set is described as follows: Cell viability, MTT assay, 3T3. The data set is classed as cell-based. Particulars: Mus musculus, 24 h, 24 h incubation, MTT endpoint. The procedure: as §1, §2
Data set [7] has as its system Zebrafish. Particulars: cited from earlier work.
Setting [8] is: A-431, 24 h, 24 h incubation, MTT endpoint, A431, read-out: IC50 (MTT) A431.
[9] abbreviates: A-431, A431 and 3T3, MTT and NRU, summarised in text, read-out: IC50 values.

Take `CC(C)(C)N1C(=O)[C@@H](Cl)[C@@H]2[C@H](Cl)CCC[C@@H]21` [Compound 3]: the IC50 (in general, the concentration that gives 50% inhibition) is above 250 µg/mL in data set [1], 250 ± 2.11 µg/mL (≈ 946 µM) in data set [2] (setting [8]), above 250 µg/mL in data set [5] and 183 ± 3.11 µg/mL (≈ 694 µM) in data set [6]. The hemolysis at 10 µg/mL in data set [3] was 0.1%. The “change of hemolytic response as concentration increased” value (shortened to “change … as concentration increased”) in data set [4] is on record as “doubled”. Besides, the “SI250, pseudo-selectivity index (NRU)” value in data set [5] is on record as “highest SI250 values”.
Turning to `CC1CN(C(C)(C)C)C(=O)C1(Cl)Cl` (stereo not shown) [Compound 4], the IC50 in data set [1], in data set [2] (setting [8]), in data set [5] and in data set [6] was above 250 µg/mL in each case. The “change … as concentration increased” value in data set [4] is recorded as “remained stable”.
Regarding `C=C(Br)CN1CC(C)C(Cl)(Cl)C1=O` (stereo not shown) [Compound 5], the IC50 was 250 µg/mL (≈ 871 µM) in data set [1]; 250 ± 1.32 µg/mL (≈ 871 µM) in data set [2] (setting [8]); above 250 µg/mL in data set [2] (setting [9]); above 250 µg/mL in data set [5]; above 250 µg/mL in data set [6].
For `CC1CN(C2CCC(=O)CC2)C(=O)C1(Cl)Cl` (stereo not shown) [Compound 6], the IC50 in data set [1], in data set [2] (setting [8]), in data set [5] and in data set [6] was above 250 µg/mL in each case. Moreover, in data set [4], the “change … as concentration increased” value is reported as “remained stable”. In data set [5], the “SI250, pseudo-selectivity index (NRU)” value was “highest SI250 values”.
Turning to `CC(C)(C)N1CC(C)(C)C(Cl)(Cl)C1=O` [Compound 7], the IC50 in data set [1] is above 250 µg/mL; in data set [2] (setting [8]) it was 230 ± 2.54 µg/mL (≈ 967 µM); in data set [5], above 250 µg/mL; in data set [6], above 250 µg/mL. In addition, the “SI250, pseudo-selectivity index (MTT)” value in data set [2] is “above 1.5”. Also, the “SI (MTT), selectivity index” value in data set [2] is listed as above 1.08. Further, the “selective cytotoxicity, A431 in comparison with 3T3 cells” value (“selective cytotoxicity, A431” for short) in data set [2] is “some selective cytotoxicity”. The “change … as concentration increased” value in data set [4] is on record as “remained stable”.
For `CC(C)(C)N1C(=O)[C@@H](Cl)[C@@H]2CCCC[C@@H]21` [Compound 8], the IC50 in data set [1] was above 250 µg/mL; in data set [2] (setting [8]), 250 ± 1.78 µg/mL (≈ 1090 µM); in data set [2] (setting [9]) it was above 250 µg/mL; in data set [5] it was above 250 µg/mL; in data set [6], above 250 µg/mL. In addition, in data set [2], the “SI (MTT), selectivity index” value is above 1.0. The hemolysis at 10 µg/mL in data set [3] was 0.1%. Further, the “change … as concentration increased” value in data set [4] was “doubled”.
For the compound `CC1CCN(C(C)(C)C)C(=O)C1(Cl)Cl` (stereo not shown) [Compound 9], the IC50 in data set [1] is above 250 µg/mL; in data set [2] (setting [8]), 242.9 ± 1.78 µg/mL (≈ 1020 µM); in data set [5], above 250 µg/mL; in data set [6], above 250 µg/mL. Besides, the “SI250, pseudo-selectivity index (MTT)” value in data set [2] is given as “above 1.5”. The “selective cytotoxicity, A431” value in data set [2] is reported as “some selective cytotoxicity”. Also, the hemolysis at 10 µg/mL in data set [3] stood at 0.1%. Moreover, in data set [3] (80 µg/mL), the hemolysis at 80 µg/mL was around 0.7%. Further, the “change … as concentration increased” value in data set [4] was “fivefold”.
Take `O=C1N(Cc2ccccc2)[C@H]2CCC[C@H](C2)C1(Cl)Cl` [Compound 10]: the IC50 in data set [1] was above 250 µg/mL; in data set [2] (setting [8]) it was 238.3 ± 1.56 µg/mL (≈ 799 µM); in data set [5], above 250 µg/mL; in data set [6] it was above 250 µg/mL. Further, the “selective cytotoxicity, A431” value in data set [2] is “some selective cytotoxicity”. In addition, the hemolysis at 10 µg/mL in data set [3] worked out at 0.02%. For the same compound, in data set [4], the “change … as concentration increased” value is on record as “remained stable”. Besides, the “SI250, pseudo-selectivity index (NRU)” value in data set [5] was “highest SI250 values”.
As for `COc1cccc2c1C(=O)c1c(O)c3c(c(O)c1C2=O)C[C@@](O)(C(=O)CO)C[C@@H]3O[C@H]1C[C@H](N)[C@H](O)[C@H](C)O1` [doxorubicin], the acute toxicity in data set [7] (Zebrafish embryos) was 5.6 µg/mL.
For the compound `CC(=O)O[C@H]1C(=O)[C@@]2(C)[C@H]([C@H](OC(=O)c3ccccc3)[C@]3(O)C[C@H](OC(=O)[C@H](O)[C@@H](NC(=O)c4ccccc4)c4ccccc4)C(C)=C1C3(C)C)[C@]1(OC(C)=O)CO[C@@H]1C[C@@H]2O` [taxol], the acute toxicity in data set [7] (Zebrafish) is recorded as 1.05 µg/mL.

These data come from article PMC12030062, “From In Vitro Cytotoxicity to In Vivo Zebrafish Assays: A Study on 3,3-Dichloro β-, γ- and δ-Lactams and Their Biological Activity Profiles” (Pharmaceuticals, 2025).
